Entries after “also recorded” stand apart in the source; their conditions may differ. Where two headings read alike, the source gives them in different places.
Columns and labels:
[1] = Body weight and blood sugar of the rats of the MDA test; assay type: in vivo; settings: on 30th day
Method: (§1) Rats were divided into four test groups, viz.
(§2) Group B: Normal rats (8 laboratory animals) to which an aqueous brazilin solution (comprising 110 mg of brazilin per kg body weight) was daily administered from the 20th to the 30th day
(§3) Group D: Diabetic rats (10 laboratory animals); for inducing diabetes, a dose of 70 mg of streptozotocin per kg body weight in 0.1M citrate buffer solution (pH 4.0) was administered intraperitoneally to normal rats on the 1st test day. From the 20th to the 30th day of the test aqueous brazilin solution (comprising 110 mg of brazilin per kg body weight) was daily administered orally to these diabetic rats. (Instead of an aqueous brazilin solution, the same amount of distilled water was administered to the laboratory animals of the groups A and C from the 20th to the 30th day.)

[2] = system: lipid peroxidation in the mitochondria of rat liver; settings: Arch. Pharm. Res. 7, 63-64, 1984; cited from earlier work
[3] = Planta Med. 31, 214-220 (1977); cited from earlier work
[4] = Rev. Latinoam. Microbiol. 1, 225-232 (1958); cited from earlier work
erythropoesis = assay: Effect on erythropoesis; design: species or system rats; settings: rat, in vivo
Method: (§4) For administering brazilin, the laboratory animals were daily injected intraperitoneally with a dose of 100 mg of brazilin per kg body weight for 10 days. For inducing diabetes, a dose of 175 mg of alloxan per kg body weight was administered intraperitoneally.

β-glucuronidase = assay: Lysosomal enzyme activity in kidney tissue; assay type: in vivo, mice
Description: (§5) Possibly, the lysosomal glycosidases active in the kidneys are involved in the micro-angiopathy accompanying diabetes mellitus. Therefore, the lysosomal glycosidase activities upon administration of brazilin and full extract were examined.
(§6) A number of mice was divided into three groups. Group I, which was used as control group, remained untreated. To the rest of the mice diabetes was induced by administering alloxan. Part of these diabetic mice remained untreated (diabetic control group II); to the rest of the diabetic mice a dose of 100 mg of brazilin per kg body weight was administered daily. After a test period of 10 and 30 days, respectively, kidney tissue was taken from the laboratory animals and the enzyme fraction was determined. In particular, incubation was carried out for 30 min at 37° C., the reaction was stopped by adding 0.05M glycine-NaOH buffer solution (pH 10.4), centrifugation was carried out at 3000 U/min for 10 min, and the amount of p-nitrophenol formed per min and per mg of protein was determined spectrophotometrically at 410 nm at the supernatant.

α-mannosidase = assay: Lysosomal enzyme activity in kidney tissue; assay type: in vivo, mice
Description: as §5, §6

β-galactosidase = assay: Lysosomal enzyme activity in kidney tissue; assay type: in vivo, mice
Description: as §5, §6

blood viscosity = assay: Blood viscosity; assay type: in vivo, rats
Method: (§7) Increased blood viscosity and reduced erythrocyte deformability are typical pathological states of diabetic subjects. The effect of brazilin administration to diabetic laboratory animals (rats) on the blood viscosity and erythrocyte deformability of these animals was examined.
as §4
The blood viscosity was determined by means of heparinized blood samples relative to distilled water at 37°±0.5° C. The time interval required by 2 ml of liquid to pass between two points of a narrow glass capillary was determined.

insulin receptors = assay: 125I-insulin binding to erythrocytes of brazilin treated diabetic mice
Method: For interpreting these findings, further tests were made with the aim to find out whether brazilin changes the affinity of the insulin receptors or can possibly increase the number of the insulin receptors.
From the laboratory animals of the above-mentioned control group (diabetic mice) and the test group (diabetic brazilin treated mice) erythrocytes (2.6×10^9 /ml) were taken, ^125 I-insulin was bound thereto (85 pM^125 I), and thereupon incubated in the presence of increasing amounts of unlabelled insulin (32 pM to 1.8 / μm) at 15° C. for 120 min. The amount of specifically bound ^125 I-insulin was then determined by subtracting the non-specifically bound insulin (10 ng/ml). The results obtained are shown in the graph of FIG. 6.

prostacyclin production = assay: Prostacyclin production (6-keto PGF alpha); assay type: in vivo, rats
Method: If an inhibiting action on MDA is detectable but no significant influence on the prostacyclin production can be detected, a selective inhibiting action on thromboxane A2 may be inferred.
as §1, §2, §3
After expiration of the 30th test day, the test animals were sacrificed, and the MDA production was determined by means of thrombin stimulated platelets.

[5] = system: erythrocyte deformability; assay: Erythrocyte deformability (filtration rate of blood); assay type: in vivo, rats
Method: as §7, §4
For determining the erythrocyte deformability, the filtration rate of blood of the various laboratory animals containing approximately 4.9×10^12 erythrocytes per l was determined under common, standardized conditions.

[6] = system: platelet aggregation in diabetic human plasma; assay: Platelet aggregation in diabetic human plasma induced by ADP; assay type: cell-based
Method: The platelet aggregation was determined by a tubimetric method in a dual-channel aggregometer, assuming that a platelet-poor plasma represented 100% aggregation and that a platelet-rich plasma represented 0% aggregation. Each aggregometer tube was charged with 40 μl of platelet-rich plasma and 50 μl of test sample solution. The mixture was incubated at 37° C. for 2 min., whereupon 50 μl of ADP solution were added. Percent inhibition of the platelet aggregation caused by the test sample solution was calculated as follows: [formula]

[7] = diabetic rats vs. control group

`Oc1ccc2c(c1)OC[C@]1(O)Cc3cc(O)c(O)cc3[C@H]21` [brazilin] gave a Blood sugar ([1]; Group B (normal + brazilin), normal control 79) of 77 ± 20.3 mg/100 ml, a Body weight ([1]; Group B (normal + brazilin), normal control 222) of 226 ± 24.4 g and a Blood sugar ([1]; Group D (diabetic + brazilin), 266 on 20th day, diabetic control 337) of 165 ± 42.7 mg/100 ml. For the same compound, the Body weight ([1]; Group D (diabetic + brazilin), diabetic control 185) was 206 ± 9.61 g, the “effect on lipid peroxidation in mitochondria of rat liver” value [2] was “effect on the lipid peroxidation” and the anti-inflammatory effect [3] was “anti-inflammatory effect”. For the same compound, the antibacterial effect [4] was “antibacterial effect”, the effect on erythropoesis (erythropoesis) was “no effect on erythropoesis” and the β-glucuronidase activity (β-glucuronidase; after 10 days, p < 0.025 vs. Group II (3.33), Group I 4.82) was 4.02 ± 0.65. It also gave a β-glucuronidase activity (β-glucuronidase; after 30 days, p < 0.05 vs. Group II (2.31), Group I 2.26) of 2.49 ± 0.25, a α-mannosidase activity (α-mannosidase; after 10 days, p < 0.001 vs. Group II (8.60), Group I 8.72) of 12.49 ± 1.34 and a α-mannosidase activity (α-mannosidase; after 30 days, p < 0.001 vs. Group II (5.69), Group I 6.57) of 5.99 ± 0.54. For the same compound, the β-galactosidase activity (β-galactosidase; after 10 days, p < 0.05 vs. Group II (14.74), Group I 11.53) was 12.33 ± 1.95, the β-galactosidase activity (β-galactosidase; after 30 days, p < 0.001 vs. Group II (7.39), Group I 8.90) was 10.28 ± 0.55 and the Viscosity (blood viscosity; alloxan diabetic rats + brazilin, P < 0.05 vs. diabetic control (1.62)) was 1.52 ± 0.07 cP. For the same compound, the “effect on blood viscosity of diabetic animals” value (blood viscosity; [7]) was “significant decrease of the blood viscosity; also recorded: significant decrease (P<0.05) of blood viscosity”, the “effect on blood viscosity of normal animals” value (blood viscosity; normal + brazilin vs. normal) was “No statistical differences” and the Viscosity (blood viscosity; normal rats + brazilin 100 mg/kg i.p. 10 days, 37° C., normal 1.45) was 1.40 ± 0.06 cP. For the same compound, the “affinity of the insulin receptors” value (insulin receptors; erythrocytes, 15° C., 120 min, treated vs. control (FIGS. 6, 7)) was “no significant affinity differences”, the “number of insulin receptors” value (insulin receptors; peripheral erythrocytes, treated vs. control) was “increase of the number of the peripheral insulin receptors” and the “6-Keto PG F α” value (prostacyclin production; diabetic rats + brazilin, diabetic control 0.19) was 0.18 ± 0.03 ng/mg. The “6-Keto PG F α” value (prostacyclin production; normal rats + brazilin, normal control 0.18) was 0.17 ± 0.02 ng/mg, the “influence on the prostacyclin production” value (prostacyclin production; rats) was “no influence on the prostacyclin production could be observed” and the Filtration rate ([5]; alloxan diabetic rats + brazilin, P < 0.01 vs. untreated and vs. diabetic control (17.4)) was 19.6 ± 0.4 mL/min. The “effect on filtration rate of diabetic animals” value ([5]; diabetic rats + brazilin) was “significant increase of the filtration rate”, the “effect on erythrocyte deformability” value [5, 7] was “significant increase of the erythrocyte deformability” and the Filtration rate ([5]; normal rats + brazilin 100 mg/kg i.p. 10 days, normal 22.9) was 23.1 ± 0.3 mL/min. The “effect on filtration rate of normal animals” value ([5]; untreated control group + brazilin) was “did not signficantly influence the filtration rate”, the “T/min, Aggregation (first value)” value ([6]; 10^-3 M, control 78.7) was 8.75% and the “Tmax, Aggregation (first value)” value ([6]; 10^-3 M, control 78.7) was 46.3%. The “Tmax, Aggregation (first value)” value ([6]; 10^-4 M, control 78.7) was 70.0%, the activity at 1000 µM ([6]; Homo sapiens, Platelet, 10^-3 M, control 100, read-out: Tmax, Aggregation relative to control (second value)) was 58.8% and the inhibition at 1000 µM ([6]; Homo sapiens, Platelet, 10^-3 M, read-out: T/min, Inhibition) was 88.9%. The inhibition at 1000 µM ([6]; Homo sapiens, Platelet, 10^-3 M, read-out: Tmax, Inhibition) was 41.2%, the activity at 100 µM ([6]; Homo sapiens, Platelet, 10^-4 M, control 100, read-out: Tmax, Aggregation relative to control (second value)) was 88.9% and the inhibition at 100 µM ([6]; Homo sapiens, Platelet, 10^-4 M, read-out: Tmax, Inhibition) was 11.1%. The “inhibition of the platelet aggregation” value ([6]; conclusion on Tables 12 and 13) was “considerable inhibition of the platelet aggregation”.

Source: patent US4918099A, “Drug, preparation and use thereof” (priority 1985, dated 1990)
